According to patent US20250206704A1, “ENGINEERED IONOPHORES FOR TRANSPORT OF METAL IONS” (The Brigham and Women's Hospital, Inc., priority 2022, published 2025):

Key:
[1] = Co-incubation kinetic study of ligand exchange with DA-ZP1 in presence of compound and Zn(II); format: physicochemical; conditions: 10 μM compound with 10 μM Zn^II, then 5 μM DA-ZP1
Procedure: The compound in phosphate-buffered saline (PBS) was added to a 96-well microplate (250 μL, 10 μM per well, Nunc 96-well plates) and incubated with 10 μM of ZnCl2. […] Reaction kinetics were monitored by measuring the fluorescence of the activated fluorescein dye (λex=490 nm, λem=522 nm) over 2 h.

[2] = tested on: U2OS cells; experiment: Zinc imaging assay (DA-ZP1 fluorescence) of ionophore activity in U2OS cells; format: cell-based; conditions: for ionophore activity (DA-ZP1 fluorescence): U2OS cells, 10 μM Zn(II) and 5 μM compound
Description: A number of bispicolyl-based Zn^II-chelators were synthesized with increasing size at the ortho-position of phenolic OH by a one-step reductive amination between bispicolyl-amine and commercially available 3-substituted salicylaldehydes. Applicants examined the ionophore activity of bispicolyl analogs with methyl (Me, 2), isopropyl (iPr, 3), and tert-butyl (tBu, 4) substitutions (FIG. 1A). […] [13] The cells were first treated with ZnCl2 and ionophore candidates followed by DA-ZP1 treatment and fluorescence measurement.
Applicants experimentally determined the ionophore activity of these silyl-based compounds using the aforementioned DAZ-P1 assay in U2OS cells.
Applicants also determined metal-ion interference of the silyl-based ionophores with focused efforts on 8. Applicants designed a competition assay wherein Applicants pre-treated equimolar amounts of various metal ions, Mg^II, Ca^II, Mn^II, Fe^II, and Na^I, with 10 μM of Zn^II for 1 hour before treatment with DA-ZP1.
Finally, Applicants compared the activity of the designed compounds against known ionophores (FIGS. 2 and 11). […] [16]
In a 96-well plate, 20,000 U2OS cells were plated per well and cultured for 24 h in the incubator set to 37° C. with 5% CO2. […] The medium containing the compound was removed, and the cells were washed with 3×100 μL of fresh medium, and finally another 100 μL of 2 μM of DA-ZP1 was added to the corresponding cell culture medium containing HCS NuclearMask Blue Stain. The cells were again kept for 1 h in the incubator. The medium containing compound was removed, and the cells were washed with 1×100 μL of PBS and 2×100 μL of fresh medium, and finally, another 100 μL of fresh, dye-free medium was added. The cells were immediately imaged using a high-content fluorescence microscope (Operetta Phenix) in both the DAPI and FITC channels at 20× magnification. Images were analyzed using the Harmony software, and data were plotted using GraphPad Prism 9.

SMILES	ligand exchange with DA-ZP1 (fluorescence increase) [1]	ionophore activity (DA-ZP1 fluorescence) [2]	metal-ion interference with ionophore activity (average fluorescence intensity) ([2]; competition: 10 μM Mg^II, Ca^II, Mn^II, Fe^II or Na^I with 10 μM Zn^II and 10 μM compound)
CC(C)[Si](c1cccc(CN(Cc2ccccn2)Cc2ccccn2)c1O)(C(C)C)C(C)C [Compound 9, 2-((bis(pyridin-2-ylmethyl)amino)methyl)-6-(triisopropylsilyl)phenol]	rapid increase in fluorescence	improved ionophore activity	
CC(C)(C)[Si](C)(C)c1cccc(CN(Cc2ccccn2)Cc2ccccn2)c1O [Compound 8, 2-((bis(pyridin-2-ylmethyl)amino)methyl)-6-(tert-butyldimethylsilyl)phenol]		improved ionophore activity	did not observe significant drops in average fluorescence intensity for most metal ions
